Reference: publication PMC6028098, “The N-terminal region of photocleavable peptides that bind HLA-DR1 determines the kinetics of fragment release” (PLoS ONE, 2018)
Where two headings read alike, the source gives them in different places. Ends that are not written are not given here. Peptide text beside a SMILES is read from it.

Columns and labels:
[1] = target: T1, HLA-DR1 (DRA*01:01/DRB1*01:01) (Homo sapiens, UniProt P01903+P01911, A100R/D57E/F55L/F60I/F76Y/I96L/L162R/M171V/P40L/Q125E/R42F/V115G/Y59C); assay: biochemical; type: binding; settings: for inhibition at 0.256 µM / inhibition at 1.28 µM / inhibition at 6.4 µM / inhibition at 32 µM / inhibition at 160 µM / inhibition at 0.000256 µM / inhibition at 0.00128 µM / inhibition at 0.0064 µM / inhibition at 0.032 µM / inhibition at 0.16 µM / inhibition at 0.8 µM / inhibition at 4 µM / inhibition at 20 µM: read-out: fraction of labeled HA binding inhibited
T1 construct: HLA-DR1 (DRA*01:01/DRB1*01:01) extracellular domain was expressed in Drosophila S2 cells; made in house

[2] = complex with DR2b, 2 minutes of UV exposure; cited from earlier work
Source text: In the only previous report in which a photocleavable peptide was used with a MHC-II protein, the complex studied was DR2b (HLA-DRB1*15:01) with a peptide derived from human myelin basic protein (MBP85-99) with the photocleavable group replacing the residue at P4 position (ENPVVHFXKNIVTPR). […] Thus in this case the peptide is cleaved efficiently and the ...

DR1 = DR1 (Homo sapiens, UniProt P01903+P01911, A100R/D57E/F55L/F60I/F76Y/I96L/L162R/M171V/P40L/Q125E/R42F/V115G/Y59C); settings: binding to DR1, estimated; cited from earlier work
[3] = target: HLA-DR1 (DRA*01:01/DRB1*01:01) extracellular domain (human); assay: fluorescence polarisation

With `CC(=O)N[C@@H](Cc1ccc(O)cc1)C(=O)N[C@H](C(=O)N[C@@H](CCCCN)C(=O)NC(CC(=O)N[C@@H](CC(N)=O)C(=O)N[C@H](C(=O)N[C@@H](CC(C)C)C(=O)N[C@@H](CCCNC(=N)N)C(=O)N[C@@H](CC(C)C)C(=O)N[C@@H](C)C(=O)N[C@H](C(=O)O)[C@@H](C)O)[C@@H](C)O)c1ccccc1[N+](=O)[O-])C(C)C` (some centres unmarked) [Ac-photoHA-Δ1–2] the inhibition at 0.256 µM ([1]; 72 h) was -1.47%, the inhibition at 1.28 µM ([1]; 72 h) was -1.61% and the inhibition at 6.4 µM ([1]; 72 h) was -1.21%. For the same compound, the inhibition at 32 µM ([1]; 72 h) was 3.82% and the inhibition at 160 µM ([1]; 72 h) was 39.8%.
`CC(=O)N1CCC[C@H]1C(=O)N[C@@H](CCCNC(=N)N)C(=O)N[C@@H](Cc1ccc(O)cc1)C(=O)N[C@H](C(=O)N[C@@H](CCCCN)C(=O)NC(CC(=O)N[C@@H](CC(N)=O)C(=O)N[C@H](C(=O)N[C@@H](CC(C)C)C(=O)N[C@@H](CCCNC(=N)N)C(=O)N[C@@H](CC(C)C)C(=O)N[C@@H](C)C(=O)N[C@H](C(=O)O)[C@@H](C)O)[C@@H](C)O)c1ccccc1[N+](=O)[O-])C(C)C` (some centres unmarked) [Ac-photoHA] showed an inhibition at 0.256 µM ([1]; 72 h) of -1.71%, an inhibition at 1.28 µM ([1]; 72 h) of -3.02% and an inhibition at 6.4 µM ([1]; 72 h) of -0.583%. It also gave an inhibition at 32 µM ([1]; 72 h) of 10%, an inhibition at 160 µM ([1]; 72 h) of 59% and an IC50 ([1]; competition with 25 nM Alexa488-labeled HA for DR1 (100 nM per method, 150 nM per Fig 7/8 legends), 37°C, 72 h, fluorescence polarization, mean ± SD of two experiments, SD, read-out: IC50) of 134 ± 2 nM.
`CSCC[C@H](NC(=O)[C@H](CCC(N)=O)NC(=O)[C@H](CC(C)C)NC(=O)[C@H](Cc1c[nH]cn1)NC(C)=O)C(=O)NC(CC(=O)N[C@@H](CC(N)=O)C(=O)N[C@@H](C)C(=O)N[C@@H](CC(C)C)C(=O)N[C@@H](C)C(=O)N[C@@H](CC(C)C)C(=O)O)c1ccccc1[N+](=O)[O-]` (some centres unmarked) [Peptide L1MxN] (HELM PEPTIDE1{[ac].H.L.Q.M.[O=C(CC(N[*:1])c1ccccc1[N+](=O)[O-])[*:2]].N.A.L.A.L}$$$$V2.0) showed an inhibition at 0.000256 µM ([1]; 72 h) of -0.215%, an inhibition at 0.00128 µM ([1]; 72 h) of -0.407% and an inhibition at 0.0064 µM ([1]; 72 h) of -1.67%. The inhibition at 0.032 µM ([1]; 72 h) was -1.44%, the inhibition at 0.16 µM ([1]; 72 h) was 2.63% and the inhibition at 0.8 µM ([1]; 72 h) was 13%. For the same compound, the inhibition at 4 µM ([1]; 72 h) was 49.4%, the inhibition at 20 µM ([1]; 72 h) was 86.9% and the IC50 ([1]; SD) was 4100 ± 298 nM.
Compound `CSCC[C@H](NC(=O)[C@H](CCC(N)=O)NC(=O)[C@@H](NC(=O)[C@H](Cc1c[nH]cn1)NC(C)=O)C(C)C)C(=O)NC(CC(=O)N[C@@H](CC(N)=O)C(=O)N[C@@H](C)C(=O)N[C@@H](CC(C)C)C(=O)N[C@@H](C)C(=O)N[C@@H](CC(C)C)C(=O)O)c1ccccc1[N+](=O)[O-]` (some centres unmarked) [Peptide V1MxN] (HELM PEPTIDE1{[ac].H.V.Q.M.[O=C(CC(N[*:1])c1ccccc1[N+](=O)[O-])[*:2]].N.A.L.A.L}$$$$V2.0) has an inhibition at 0.000256 µM ([1]; 72 h) of -0.0001%, an inhibition at 0.00128 µM ([1]; 72 h) of 3% and an inhibition at 0.0064 µM ([1]; 72 h) of 5.87%. For the same compound, the inhibition at 0.032 µM ([1]; 72 h) was 4.84%, the inhibition at 0.16 µM ([1]; 72 h) was 1.29% and the inhibition at 0.8 µM ([1]; 72 h) was 10.9%. For the same compound, the inhibition at 4 µM ([1]; 72 h) was 34.5%, the inhibition at 20 µM ([1]; 72 h) was 92.8% and the IC50 ([1]; SD) was 5400 ± 341 nM.
`CSCC[C@H](NC(=O)[C@H](CCC(N)=O)NC(=O)[C@H](Cc1ccc(O)cc1)NC(C)=O)C(=O)NC(CC(=O)N[C@@H](CC(N)=O)C(=O)N[C@@H](C)C(=O)N[C@@H](CC(C)C)C(=O)N[C@@H](C)C(=O)N[C@@H](CC(C)C)C(=O)O)c1ccccc1[N+](=O)[O-]` (some centres unmarked) [Peptide Y1MxN] (HELM PEPTIDE1{[ac].Y.Q.M.[O=C(CC(N[*:1])c1ccccc1[N+](=O)[O-])[*:2]].N.A.L.A.L}$$$$V2.0) showed an inhibition at 0.000256 µM ([1]; 72 h, Fig 2, [Pep] 0.000256 uM, 100 nM DR1, 25 nM Alexa488-labeled HA, 3 days, FP, mean of two experiments in triplicate) of -1.47%, an inhibition at 0.00128 µM ([1]; 72 h, Fig 2, [Pep] 0.00128 uM, 100 nM DR1, 25 nM Alexa488-labeled HA, 3 days, FP, mean of two experiments in triplicate) of 4.96% and an inhibition at 0.0064 µM ([1]; 72 h, Fig 2, [Pep] 0.0064 uM, 100 nM DR1, 25 nM Alexa488-labeled HA, 3 days, FP, mean of two experiments in triplicate) of -1.42%. The inhibition at 0.032 µM ([1]; 72 h, Fig 2, [Pep] 0.032 uM, 100 nM DR1, 25 nM Alexa488-labeled HA, 3 days, FP, mean of two experiments in triplicate) was 13.4%, the inhibition at 0.16 µM ([1]; 72 h, Fig 2, [Pep] 0.16 uM, 100 nM DR1, 25 nM Alexa488-labeled HA, 3 days, FP, mean, n = 3) was 39.7% and the inhibition at 0.8 µM ([1]; 72 h, Fig 2, [Pep] 0.8 uM, 100 nM DR1, 25 nM Alexa488-labeled HA, 3 days, FP, mean of two experiments in triplicate) was 69.7%. For the same compound, the inhibition at 4 µM ([1]; 72 h, Fig 2, [Pep] 4 uM, 100 nM DR1, 25 nM Alexa488-labeled HA, 3 days, FP, mean of two experiments in triplicate) was 90% and the inhibition at 20 µM ([1]; 72 h, Fig 2, [Pep] 20 uM, 100 nM DR1, 25 nM Alexa488-labeled HA, 3 days, FP, mean of two experiments in triplicate) was 96.1%.
For `CC(C)C[C@H](NC(=O)[C@H](CCCNC(=N)N)NC(=O)[C@H](CC(C)C)NC(=O)[C@@H](NC(=O)[C@H](CC(N)=O)NC(=O)CC(NC(=O)[C@H](CCCCN)NC(=O)[C@@H](NC(=O)[C@@H](N)Cc1ccc(O)cc1)C(C)C)c1ccccc1[N+](=O)[O-])[C@@H](C)O)C(=O)N[C@@H](C)C(=O)N[C@H](C(=O)O)[C@@H](C)O` (some centres unmarked) [photoHA-Δ1–2], the inhibition at 0.256 µM ([1]; 72 h) was -1.94%, the inhibition at 1.28 µM ([1]; 72 h) was -1.83% and the inhibition at 6.4 µM ([1]; 72 h) was -1.22%. For the same compound, the inhibition at 32 µM ([1]; 72 h) was -0.549% and the inhibition at 160 µM ([1]; 72 h) was 9.88%.
With `CC(C)C[C@H](NC(=O)[C@H](CCCNC(=N)N)NC(=O)[C@H](CC(C)C)NC(=O)[C@@H](NC(=O)[C@H](CC(N)=O)NC(=O)CC(NC(=O)[C@H](CCCCN)NC(=O)[C@@H](NC(=O)[C@H](Cc1ccc(O)cc1)NC(=O)[C@H](CCCNC(=N)N)NC(=O)[C@@H]1CCCN1)C(C)C)c1ccccc1[N+](=O)[O-])[C@@H](C)O)C(=O)N[C@@H](C)C(=O)N[C@H](C(=O)O)[C@@H](C)O` (some centres unmarked) [photoHA] the inhibition at 0.256 µM ([1]; 72 h) was -1.65%, the inhibition at 1.28 µM ([1]; 72 h) was -2.9% and the inhibition at 6.4 µM ([1]; 72 h) was -1.3%. It also gave an inhibition at 32 µM ([1]; 72 h) of 22.2%, an inhibition at 160 µM ([1]; 72 h) of 66.3% and an IC50 ([1]; SD) of 92 ± 2 nM.
For “Ac-PRYVKQNTLRLAT [HA, reference compound]”, the inhibition at 0.0064 µM ([1]; 72 h) was 7.96%, the inhibition at 0.032 µM ([1]; 72 h) was 48.7% and the inhibition at 0.16 µM ([1]; 72 h) was 70.6%. It also gave an inhibition at 0.256 µM ([1]; 72 h) of -1.7%, an inhibition at 0.8 µM ([1]; 72 h) of 95% and an inhibition at 1.28 µM ([1]; 72 h) of -1.55%. The inhibition at 4 µM ([1]; 72 h) was 99%, the inhibition at 6.4 µM ([1]; 72 h) was -0.259% and the inhibition at 20 µM ([1]; 72 h) was 104%. The inhibition at 32 µM ([1]; 72 h) was 29.5%, the inhibition at 160 µM ([1]; 72 h) was 76.5% and the IC50 ([1]; competition with 25 nM Alexa488-labeled HA for DR1 (100 nM per method, 150 nM per Fig 7/8 legends), 37°C, 72 h, fluorescence polarization, mean ± SD of two experiments, read-out: IC50) was 40 nM.
For ENPVVHFXKNIVTPR, the “parent peptide after UV exposure” value [2] is given as “almost undetectable”.
For “HA306-318: immunodominant viral epitope from influenza virus hemagglutinin (Ac-PRYVKQNTLRLAT; not fully specified (residue 5); also: label on K5, type not given here)”, the Kd (DR1) is given as 13 nM.
For “L1MxN photocleavable peptide (Ac-HLQMxNALAL)”, the IC50 [3] was 4100 nM.
“V1MxN photocleavable peptide (Ac-HVQMxNALAL)” gave an IC50 [3] of 5400 nM.
Work on “Y1MxN photocleavable peptide (Ac-YQMxNALAL)” yielded an IC50 [3] of 323 nM.
